# Assay results taken from ChEMBL document CHEMBL1157539, “Thousands of chemical starting points for antimalarial lead identification” (Nature, 2010).
# System: Plasmodium falciparum
# Test: GSK_TCMDC: Inhibition of Plasmodium falciparum 3D7 in whole erythrocytes, using parasite LDH activity as an index of growth.
# Format: functional, organism-based
# Conditions: Plasmodium falciparum, 3D7
row,Compound,XC50
1,CN/C(=C\[N+](=O)[O-])NCCSCc1cc(C)c(CN(C)C)s1,0.348 µM
2,Cc1cc(N/N=C/c2ccccc2[N+](=O)[O-])c2cc(C(F)(F)F)ccc2n1,0.75 µM
3,Cc1cc(N/N=C/c2cccc([N+](=O)[O-])c2)c2ccc(C(F)(F)F)cc2n1,0.876 µM
4,Nc1nc(N)c2c(ccc3[nH]ccc32)n1,1.08 µM
5,Cc1[nH]c(C)c(-c2ccc(Oc3cccc(Cl)c3)cc2)c(=O)c1Br,0.0342 µM
6,O=C(NCc1ccc(C(=O)NCc2cccc3ccccc23)cc1)c1ccc(O)c(-c2ccc(Cl)c(Cl)c2)c1,0.814 µM
7,Nc1nc(N)c2c(ccc3c2ccn3CCCCO)n1,0.117 µM
8,COc1ccc(CNc2ccnc(-n3cnc4cc(C)c(C)cc43)n2)cc1Cl,0.274 µM
9,Cc1cc(O)c2c3c1C(=O)C=C1C3c3c(c(O)cc(O)c3C(=O)C1(C)C)C2=O (stereo not drawn),1.68 µM
10,N=C(N)NN=CC(=O)Nc1ccc(Cl)c(Cl)c1,0.737 µM
11,O=C(NCCCCCN1CCCN(C(=O)Nc2ccc(F)c(C(F)(F)F)c2)CC1)C1CC1c1ccc(Cl)c(Cl)c1 (stereo not drawn),1.03 µM
12,CN1CCN(CC(=O)Nc2cccc(-c3ccc(-c4nc5cc(F)ccc5[nH]4)s3)c2)CC1,0.679 µM
13,N=C(N)NCC=C(c1ccccc1)c1ccccc1,0.989 µM
14,O=C(Nc1ccccc1)N(Cc1ccc(-c2ccc(CNCc3ccc4c(c3)OCO4)cc2)cc1)C1CCN(Cc2ccccc2)CC1,0.57 µM
15,CCN(CC)CCN(Cc1ccc(-c2ccc(Cl)cc2)cc1)C(=O)Cn1cc(CN(C)C)c(=O)nc1SCc1ccc(F)cc1,0.748 µM
16,Cc1ccc2c(=O)c3cc(C)ccc3[nH]c2c1,0.424 µM
17,O=C(/C=C/c1ccc(Cl)c(Cl)c1)NCCCCCN1CCCC(CNC(=O)/C=C/c2ccccc2)C1 (stereo not drawn),0.791 µM
18,Cc1cc(C)n(-c2nc(Nc3cccc(C(F)(F)F)c3)nc(-n3nc(C)cc3C)n2)n1,0.362 µM
19,O=C(NCc1ccco1)c1ccc(CN2CCN(C(c3ccccc3)c3ccccc3)CC2)cc1,0.789 µM
20,O=C(CC(=O)C(F)(F)F)c1ccc2c(c1)OCO2,0.744 µM
21,O=C(NC1CCN(CCC(NC(=O)c2ccccc2)c2ccc(Cl)c(Cl)c2)CC1)c1ccc(Cl)cc1 (stereo not drawn),1.07 µM
22,CC(=O)Oc1c(Cl)c(C)nc(C)c1-c1ccc(Oc2ccc(OC(F)(F)F)cc2)cc1,0.0962 µM
23,COc1cccc(CCc2ccc(O)c3c2C[C@H]2C[C@H]4[C@H](N(C)C)C(O)=C(C(N)=O)C(=O)[C@@]4(O)C(O)=C2C3=O)c1,0.85 µM
24,C=CCc1cccc(C)c1OCCCON1C(=N)N=C(N)NC1(C)C,0.0032 µM
25,CC(CCCCC(=O)Nc1ccc(C(F)(F)F)cc1)NCC(O)c1cccc(Cl)c1 (stereo not drawn),0.282 µM

row,Compound,XC50
1,O=C(N[C@@H](Cc1ccccc1)C(=O)NCc1cccc(C(F)(F)F)c1)c1ccc(O)c(-c2ccc(Cl)c(Cl)c2)c1,0.696 µM
2,COCCCNc1nc2cc(OC)c(OC)cc2c2nc(-c3ccccc3)nn12,0.192 µM
3,CCCCCCNCc1c(O)ccc2c(CNCCCCCC)c(O)ccc12,0.13 µM
4,CC(=O)Nc1ccc(CN2Cc3ccc(NC(=O)Nc4ccc(Oc5ccccc5)cc4)cc3C2)s1,0.918 µM
5,O=C(/C=C/c1ccc(Cl)c(Cl)c1)NCCCCCN1CCC(C(=O)Nc2ccc(F)c(Cl)c2)CC1,0.647 µM
6,Cc1cccc2nc(-c3cccc(-c4cccc(NC(=O)Nc5ccc(Cl)cc5)c4)c3)[nH]c12,0.236 µM
7,Cc1nc(-c2ccncc2)sc1C(=O)Nc1ccc(Cl)cc1C(=O)Nc1ccc(Cl)cc1,0.759 µM
8,CCn1ccc2c(N3CCCCS3(=O)=O)cc(C(=O)N[C@@H](Cc3ccccc3)[C@H](O)CNC3CCCCC3)cc21,0.122 µM
9,COc1cccc(CN2CCCC(COC(c3ccc(F)cc3)c3ccc(F)cc3)C2)c1O (stereo not drawn),0.33 µM
10,Cc1cccc2nc(-c3ccc(-c4ccc(CNCCN5CCNCC5)cc4)s3)[nH]c12,1.15 µM
11,CC(=O)C1(c2ccccc2)CCN(CCC2(c3ccc(Cl)c(Cl)c3)CN(C(=O)C3CCCC3)CCO2)CC1 (stereo not drawn),0.798 µM
12,CCOc1ccc(C=CC(=O)Nc2ccc3nc(N4CCOCC4)cc(C)c3c2)cc1OC,0.901 µM
13,COc1ccc2[nH]cc(C3=CCN(CC4CC4C(=O)c4ccccc4)CC3)c2n1 (stereo not drawn),0.27 µM
14,COc1cccc(NC(=O)Nc2ccc(-c3oc(C(=O)NCC(c4ccccc4)N(C)C)cc3-c3ccncc3)cc2)c1 (stereo not drawn),1.83 µM
15,Cc1cc(C(F)(F)F)n2nc(C(=O)N(Cc3cncn3Cc3cccc(F)c3)CC3CC3)cc2n1,0.742 µM
16,Cc1cccc2nc(-c3ccc(-c4cccc(CN5CCN(CCN6CCOCC6)CC5)c4)s3)[nH]c12,0.153 µM
17,CN(C)CCn1c(N)c(-c2nc3ccccc3s2)c2nc(C#N)c(C#N)nc21,1.01 µM
18,CCC(NC(=O)c1ccccc1NC(=O)c1ccc(C)cc1)C(=O)OC (stereo not drawn),0.763 µM
19,N#Cc1ccc(-c2ccc3nc(N4CCCN(C5CCC5)CC4)ccc3c2)cc1,1.5 µM
20,COc1ccc(CN2CCC(CNCCc3ccccc3Cl)CC2)cc1,1.11 µM
21,c1ccc(-c2ccc(CNCc3ccc(-c4cccc(-c5nc6ccccc6[nH]5)c4)cc3)s2)nc1,0.396 µM
22,COc1cc2nc(N3CCC(CNC(=O)c4ccc(-c5ccc(C(=O)N(C)C)cc5)cc4)CC3)nc(N)c2cc1OC,0.746 µM
23,Nc1nc(N)c2c(Oc3cccc4ccccc34)cccc2n1,1.01 µM
24,COc1cc2nc(N3CCC(CNC(=O)c4ccc(-c5ccc(Cl)cc5)cc4)CC3)nc(N)c2cc1OC,0.147 µM
25,c1cncc(Oc2ccc(Nc3ccnc4cc(-c5cccc(CN6CCOCC6)c5)ccc34)cc2)c1,0.305 µM

row,Compound,XC50
1,O=S(=O)(c1cccc2cccnc12)N1CCN(C2CCCCC2)CC1,0.765 µM
2,COc1cc2nc(NCC3CCCCC3)nc(NCc3ccccc3)c2cc1OC,0.142 µM
3,Cc1cc(C(=O)CN2C(=O)NC3(CCOc4ccccc43)C2=O)c(C)n1Cc1ccco1 (stereo not drawn),0.605 µM
4,COc1cc2c(c(OC)c1OC)C[C@H]1c3c(cc4c(c3-2)OCO4)CCN1C,0.969 µM
5,CC1CC1C(=O)NC1CCN(CC2(c3ccccc3)CCCCC2)CC1 (stereo not drawn),0.637 µM
6,N#Cc1ccc2c(c1)CCN(CCC1CCC(NC(=O)c3cc4ccc(Cl)cc4[nH]3)CC1)C2 (stereo not drawn),0.7 µM
7,CC(CCc1ccc(OCc2ccccc2)cc1)NCC(O)c1ccccc1 (stereo not drawn),1.1 µM
8,Cc1ccc(CNC(=O)[C@H](CCCN)Nc2cc(C)nc(Nc3ccccc3)n2)cc1,1.29 µM
9,Cc1cc(=NN=Cc2ccc(F)cc2)c2ccc(C(F)(F)F)cc2[nH]1,0.816 µM
10,COc1cc(NCCCCCNc2cc(Cl)nc3ccccc23)nc2ccccc12,0.783 µM
11,CCCCCCN1CCC(NCc2cccc(-n3ccnc3)c2)CC1,0.255 µM
12,COc1ccccc1C1CC(c2ccccc2)=NN1C(=O)c1ccccc1 (stereo not drawn),0.296 µM
13,CC(C)CCn1c(Sc2ccc(C#N)c([N+](=O)[O-])c2)nnc1-c1ccc(N(C)C)cc1,0.786 µM
14,COc1ccc(C(=O)CCC(=O)N(CCC2CCCN2C)Cc2ccc(-c3ccc(CNCCc4ccc(S(C)(=O)=O)cc4)cn3)cc2)cc1F (stereo not drawn),0.874 µM
15,COc1cc2c(cc1C(F)(F)F)N(C(=O)Nc1cc(F)cc(-c3cncnc3)c1)CC2,0.5 µM
16,COc1cccc(NC(=O)c2ccc(NCCCN3CC(C)CC(C)C3)c([N+](=O)[O-])c2)c1 (stereo not drawn),0.721 µM
17,Cc1cc(N(C)C)nc(Nc2ccc(NC(=O)COc3ccccc3)cc2)n1,1.76 µM
18,COc1ccc(OC)c(Cc2c(C)nc3nc(N)nc(N)c3c2C)c1,0.864 µM
19,O=C(Nc1ccc(OC2CCN(Cc3ccsc3)C2)c(Cl)c1)c1cccs1 (stereo not drawn),0.96 µM
20,CC(C)C[C@H](Nc1ccnc(NCC2CCCCC2)n1)C(=O)Nc1ccccc1,1.43 µM
21,O=C(Nc1ccc(C(F)(F)F)cc1)c1ccc(S(=O)(=O)NC2CCCN(CC3CCCCC3)C2)cc1 (stereo not drawn),0.718 µM
22,O=C(Nc1ccccc1)N(Cc1ccccc1-c1cccc(CNCCc2ccccc2)c1)C1CCN(Cc2ccccc2)CC1,0.176 µM
23,CC(=O)c1cccc(NC(=O)c2ccc(Cl)c(S(=O)(=O)N3CCc4ccccc43)c2)c1,1.64 µM
24,COc1ccc(N2CCN(c3nc(Nc4ccc(NC(C)=O)cc4)nc(N4CCCC4)n3)CC2)cc1,0.976 µM
25,Cc1cccc2nc(-c3ccc(-c4ccc(CN5CCC(C(N)=O)CC5)cc4)s3)[nH]c12,0.907 µM

row,Compound,XC50
1,COc1cc(NC(=O)/C=C/c2cc3ccccc3n2C)ccc1OCCN(C(C)C)C(C)C,0.387 µM
2,Cc1cccc2nc(-c3ccc(-c4ccc(NC(=O)C(=O)c5cccn5C)cc4)cc3)[nH]c12,0.819 µM
3,CCOc1ccc2nc3cc(N)ccc3c(N)c2c1,0.527 µM
4,OC(CNc1ccnc(Nc2cccc(Cl)c2)n1)c1cccc(C(F)(F)F)c1 (stereo not drawn),0.513 µM
5,Cc1ccc(-c2cncc(-c3cc(NC4CCN(Cc5ccccc5)CC4)nc(-c4ccccc4)n3)c2)cc1,0.72 µM
6,CCc1ccc(CN2CCC(NC(=O)c3cc(-c4ccc(N(C)C)cc4)cs3)C2)cc1 (stereo not drawn),1.44 µM
7,O=S1(=O)NCc2ccc(Nc3nccc(Nc4ccc5c(cnn5Cc5ccccc5)c4)n3)cc21,0.75 µM
8,Cn1nc(C(=O)N2CCC(c3[nH]ncc3Cc3ccccc3)CC2)c2ccccc2c1=O,0.304 µM
9,CCOc1ccc2[nH]c(C)cc(=NN=Cc3cccc(C)n3)c2c1,0.754 µM
10,COc1cc2c(cc1OCCN1CCC(N3CCCCC3)CC1)N(C(=O)/C=C/c1ccccc1OC(F)(F)F)CC2,0.59 µM
11,COc1ccc2[nH]c(C)cc(=NN=Cc3ccccc3F)c2c1,0.365 µM
12,COc1cc2c(c(OC)c1[N+](=O)[O-])C=CC1(O2)N(C)c2ccc([N+](=O)[O-])cc2C1(C)C (stereo not drawn),0.905 µM
13,O=C1Nc2cccc3c2C1(CCCCN1CCC(c2c(-c4ccccc4)[nH]c4ccccc24)CC1)CCC3 (stereo not drawn),1.2 µM
14,CN1CCC(NCc2cccc(-c3cccc(-c4nc5cc(C(F)(F)F)ccc5[nH]4)c3)c2)CC1,0.142 µM
15,NCC1CCCN1Cc1ccc(-c2ccc(-c3nc4ccccc4[nH]3)s2)cc1 (stereo not drawn),0.934 µM
16,CCCCOC(C(=O)OCC1CCCN1C)(c1ccccc1)c1ccccc1 (stereo not drawn),0.786 µM
17,Oc1cc(Nc2ccnc3cc(-c4ccc(CN5CCCCC5)o4)c(Cl)cc23)c(Cl)cc1F,1.26 µM
18,CCOC(=O)c1ccc(NC(=O)N[C@@H](Cc2ccccc2)C(=O)NC2CCN(Cc3ccc(O)cc3)C2)cc1 (stereo partly drawn),0.628 µM
19,Cc1ccc(C)c2sc(N(CCCn3ccnc3)C(=O)C=Cc3cccs3)nc12,1.06 µM
20,O=C(NC1CCC(N2CCC(c3ccccc3C(F)(F)F)CC2)CC1)c1cc2ccccc2[nH]1 (stereo not drawn),0.521 µM
21,c1ccc(-c2cccnn2)cc1,0.91 µM
22,COc1cc(OC)cc(-c2nc3ccc(OCCN(C)C)c(C#N)c3[nH]2)c1,0.655 µM
23,Cc1cc(=O)[nH]c2cc(Nc3ccnc(Nc4cccc(C(N)=O)c4)n3)ccc12,1.52 µM
